From PubChem BioAssay AID586 (The Scripps Research Institute Molecular Screening Center, 2007)
The source made the active and inactive calls. The rule behind the calls is not given here.

These compounds were tested on antigen receptor-induced NF-kappaB activation reporter, cells (assay: NF-kB reporter activation blockers, potency – cell-based, dose response (AID 586)).
In the case of `Cc1ccc(-c2cc3c(nn2)-c2ccccc2C3=O)cc1`, the IC50 is reported as 3290 nM. Compound `COc1ccc(C2=Nn3c(nnc3-c3ccccc3OC)SC2)cc1OC` has an IC50 of 1420 nM. For `Cc1cccc(C)c1-n1nnnc1SCSc1nnnn1-c1c(C)cccc1C`, the IC50 was 3410 nM. `O=C(c1ccc(Cl)cc1)N1CCCCC(Sc2nnc(-c3ccc4c(c3)OCO4)o2)C1=O` (stereo not given) showed an IC50 of 1240 nM. Work on `COc1ccc(OCc2cccc(C(=O)O)c2)cc1` yielded an IC50 of 257 nM. For `COc1cc(OC)cc(-c2cc3nc(C)c(CCC(=O)O)c(C)n3n2)c1`, the IC50 was 1540 nM. In the case of `CC1=CC(C)(C)Nc2ccc(OC(=O)c3cccnc3)cc21`, the IC50 is reported as > 9970 nM (inactive). For `COc1ccc2cc(C(=O)NCc3ccco3)c(=Nc3ccc(C(=O)O)cc3)oc2c1`, the IC50 was 20900 nM (inactive). Compound `Cc1cccc(N2CCN(C(=O)c3ccc(CS(=O)(=O)c4ccccc4C)o3)CC2C)c1` (stereo not given) has an IC50 of 7040 nM. `COc1cc(C2C(C#N)=C(N)Oc3cc(N(C)C)ccc32)cc2c1OCO2` (stereo not given) showed an IC50 of 766 nM. `CCOC(=O)c1[nH]c2c(c1C)C(=O)CC(c1ccco1)C2` (stereo not given) showed an IC50 of 316 nM. For `CCn1c2ccccc2c2cc(Nc3cc(C)nc4ncnn34)ccc21`, the IC50 was 1450 nM. Compound `CCCN1C=CC(=C2C(=O)c3ccccc3C2=O)C=C1` has an IC50 of 1040 nM. In the case of `C=C(C)COc1ccc(-c2[nH]ncc2-c2ccc(OC)c(OC)c2)c(O)c1`, the IC50 is reported as 8250 nM. In the case of `CCOc1ccccc1NC(=O)c1cccc(NC(=O)c2ccco2)c1`, the IC50 is reported as > 30000 nM (inactive). `O=C(NC1=NCCS1)C1COc2ccccc2O1` (stereo not given) showed an IC50 of 2420 nM. With `O=C(NC1c2ccccc2-c2ccccc21)N1CCCCC1` the IC50 was > 30000 nM (inactive). With `Cc1cc(-n2c(C)cc(C(=O)CSc3ncnc4ccccc34)c2C)no1` the IC50 was > 30000 nM (inactive). Work on `CC1CCN(c2nc3ccc(C(=O)O)cc3s2)CC1` yielded an IC50 of 203 nM. In the case of `CCOC(=O)c1[nH]c(C)c(C(=O)c2cc(F)ccc2F)c1C`, the IC50 is reported as > 9970 nM (inactive). Work on `CCNC(=O)CCc1nc(-c2ccc(C(C)(C)C)cc2)no1` yielded an IC50 of 1610 nM. In the case of `CCN(c1ccccc1)S(=O)(=O)c1ccc(Oc2ccc(-n3ccnc3)cc2)nc1`, the IC50 is reported as 738 nM. Work on `Cc1nn(Cc2ccccc2Cl)c(C)c1C(=O)Nc1nnc(C2CC2)s1` yielded an IC50 of 2500 nM. For `Cc1ccc(C(=O)NCCn2cc(SCC(=O)Nc3cc(C)on3)c3ccccc32)cc1`, the IC50 was 5460 nM. With `Cc1cc(C)nc(N2CCC(C(=O)NCCc3ccc(F)cc3)CC2)n1` the IC50 was > 30000 nM (inactive). Compound `COc1cc(NC(=O)c2cccc3c2C(=O)N(Cc2cccnc2)C3)cc(OC)c1OC` has an IC50 of 1180 nM. For `COc1cccc(C=Nc2cccnc2)c1O`, the IC50 was > 30000 nM (inactive). In the case of `COc1cccc(Oc2cnc(N)nc2-c2ccc(OC)cc2O)c1`, the IC50 is reported as 14600 nM (inactive). `Cc1oc(-c2ccccc2Cl)nc1CSCC(=O)N1CCCC1` showed an IC50 of 1160 nM. In the case of `Cc1cc(C(=O)OCC(=O)NCc2ccco2)c(C)n1-c1ccccc1`, the IC50 is reported as > 30000 nM (inactive). `COc1ccc2c(c1)sc1nc(-c3ccccc3)cn12` showed an IC50 of 1870 nM. With `COc1cc(CC(NC(C)=O)C(=O)NC2CCN(c3nc(C)cc(C)c3C#N)CC2)cc(OC)c1` (stereo not given) the IC50 was 1640 nM. `CCN1C=CC(=C2C(=O)c3ccccc3C2=O)C=C1` gave an IC50 of 4750 nM. `O=C(CSc1nnnn1C1CC2CCC1C2)Nc1ccnc2ccccc12` (stereo not given) was tested, and the IC50 was > 30000 nM (inactive). For `Cc1nn(-c2ccccc2)c(Cl)c1C1C(C#N)=C(N)Oc2n[nH]c(C)c21` (stereo not given), the IC50 was 1860 nM. `COc1ccc(C(=O)NC(=O)Nc2cc(C)ccn2)cc1` gave an IC50 of 3900 nM. Compound `COc1ccc(-n2ncc3c(N4CCCCC4)ncnc32)cc1` has an IC50 of 2660 nM. `CCOc1ccc(-c2cc(C(=O)O)c3ccccc3n2)c(OCC)c1` gave an IC50 of 4600 nM. For `Cc1c(C(=O)OCCOC(C)C)[nH]c2c1C(=O)CC(c1ccco1)C2` (stereo not given), the IC50 was 1670 nM. In the case of `Cc1ccc(-c2cnc(NC(=O)CCC(=O)N3CCCCC3)n2C)cc1`, the IC50 is reported as 953 nM. With `O=C(NCc1cccs1)c1nc2c(nnn2Cc2ccccc2Cl)c(=O)[nH]1` the IC50 was 2320 nM. With `CCCOc1c(OC)cccc1C1CC(=O)Nc2cc(OC)c(OC)c(OC)c21` (stereo not given) the IC50 was > 30000 nM (inactive). For `CCOC(=O)c1ccccc1NC(=O)Cn1c(-c2nonc2N)nc2ccccc21`, the IC50 was 11600 nM (inactive). In the case of `CCOc1ccccc1NC(=O)Cn1nnc(C(=O)NCc2ccco2)c1N`, the IC50 is reported as 1350 nM. `O=C(O)c1cccc(COc2ccc(CO)cc2Cl)c1` gave an IC50 of 252 nM. In the case of `CNC(=O)CCc1nc(-c2ccc(C(C)(C)C)cc2)no1`, the IC50 is reported as 17000 nM (inactive). In the case of `CC(=O)c1ccc(-c2nc3c4ccccc4ccn3c2C(C)=O)o1`, the IC50 is reported as 730 nM. `COc1ccccc1C(=O)N1CCN(c2cccc(Cl)c2)CC1` was tested, and the IC50 was 17900 nM (inactive). With `N#CC1=C2SCC(O)(c3ccccc3)N2C(=O)CC1c1cccs1` (stereo not given) the IC50 was 5020 nM. `CC1CCCN(c2ncnc3c2cnn3-c2ccc(Cl)cc2)C1` (stereo not given) gave an IC50 of 73 nM. In the case of `COc1ccc(-c2noc(CCCC(=O)O)n2)cc1`, the IC50 is reported as > 30000 nM (inactive). With `Cc1cc(C(=O)CN2C(=O)c3ccccc3S2(=O)=O)c(C)n1CC1CCCO1` (stereo not given) the IC50 was 310 nM. Compound `COc1cccc(-c2nnc3n2N=C(C(C)(C)C)CS3)c1` has an IC50 of 3280 nM. For `O=C(O)c1cccc(COc2ccccc2Cl)c1`, the IC50 was 615 nM. For `O=C(O)[C@@H]1CCCC[C@@H]1C(=O)N1CCc2ccccc2C1CN1C(=O)c2ccccc2C1=O` (stereo not given in full), the IC50 was > 30000 nM (inactive). With `c1ccc(-c2noc(-c3ccc4c(c3)OCO4)n2)nc1` the IC50 was > 30000 nM (inactive). For `CCNc1ccc(C(=O)OCC)cc1NC(=O)c1cccc(N(C)C)c1`, the IC50 was > 30000 nM (inactive). Compound `CCCCn1c(SCc2c(C)noc2C)nc2cc(S(N)(=O)=O)ccc21` has an IC50 of 2600 nM. In the case of `COc1ccccc1-c1nnc2sc(-c3ccc(N(C)C)cc3)nn12`, the IC50 is reported as > 9970 nM (inactive). In the case of `COC(=O)c1[nH]c2c(c1C)C(=O)CC(c1ccccc1)C2` (stereo not given), the IC50 is reported as 13200 nM (inactive). In the case of `Clc1ccc(COn2nnc3ccccc32)c(Cl)c1`, the IC50 is reported as > 30000 nM (inactive). In the case of `N#Cc1c(NC(=O)CSc2ncn[nH]2)sc2c1CCCCC2`, the IC50 is reported as 6570 nM. With `CCOc1ccc(-c2nc(CSCC(=O)NCc3ccco3)c(C)o2)cc1` the IC50 was 1830 nM. With `CCN(CC)c1ccc2cc(NC(=O)CCC(=O)O)c(=O)oc2c1` the IC50 was > 9970 nM (inactive). For `CCCN(CCC)S(=O)(=O)c1ccc(C(=O)Nc2nnc(-c3cccc(OC)c3)o2)cc1`, the IC50 was 4510 nM. `COc1cccc2c(C)c(C(=O)O)[nH]c12` showed an IC50 of 4840 nM. `O=C1NC(Nc2nc3ccccc3s2)(C(F)(F)F)C(=O)N1C1CCCCC1` (stereo not given) was tested, and the IC50 was > 30000 nM (inactive). `CCOc1ccc(OCc2cccc(C(=O)N3CCOCC3)c2)cc1` gave an IC50 of 2570 nM. `COc1cc(C2C(C#N)=C(C)NC3=C2C(=O)c2ccccc23)cc(OC)c1OC` (stereo not given) gave an IC50 of 6610 nM. Work on `CCN1C(=O)c2cccc3c(S(=O)(=O)Nc4ccccn4)ccc1c23` yielded an IC50 of 2940 nM. With `Cn1c(=O)n(C)c2cc(C(=O)Nc3ccc4c(c3)OCO4)ccc21` the IC50 was 2250 nM. With `O=C(Cc1cccs1)Nc1nc2c(s1)CCCC2` the IC50 was 2650 nM. `CCOc1ccc(OCc2cccc(C(=O)O)c2)cc1` showed an IC50 of 192 nM. With `CCCOc1ccccc1C1CC(=O)Nc2cc3c(cc21)OCCO3` (stereo not given) the IC50 was 25000 nM (inactive). `CC1=CC(C)(C)Nc2ccc(OC(=O)CN3C(=O)CCC3=O)cc21` showed an IC50 of 6840 nM. In the case of `Cc1ccc(Nc2cc(C)nn2-c2nc(C)cc(=O)[nH]2)cc1`, the IC50 is reported as 10600 nM (inactive). Work on `NC(=O)c1sc2nccc(Nc3ccccc3)c2c1N` yielded an IC50 of 8970 nM. In the case of `COc1cccc(NC(=O)CSc2nnc(-c3cc(C)n(-c4ccccc4)c3C)o2)c1`, the IC50 is reported as > 9970 nM (inactive). For `Oc1c(C(Nc2nc3ccccc3s2)c2ccco2)ccc2cccnc12` (stereo not given), the IC50 was 1710 nM. Work on `O=C(Nc1ccc(N2CCOCC2)cc1)c1cnsn1` yielded an IC50 of 4220 nM. In the case of `c1ccc(-c2cccc(-c3ccccn3)n2)nc1`, the IC50 is reported as 1090 nM. `O=c1c2ccccc2cnn1-c1nc2ccccc2s1` gave an IC50 of 3300 nM. For `CSc1nnc2c3ccccc3n(CCc3ccccc3)c2n1`, the IC50 was 10300 nM (inactive). For `CCN(CC)c1ccc2cc(-c3nc4ccccc4n3C)c(=O)oc2c1`, the IC50 was > 9970 nM (inactive). In the case of `Cc1oc2cc3c(C(=O)OCCN(C)C)c(C)oc3cc2c1C(=O)OCCN(C)C`, the IC50 is reported as 438 nM. `Cc1ccc(-c2nsc3c(N4CCC(C(N)=O)CC4)ncnc23)cc1` was tested, and the IC50 was > 30000 nM (inactive). With `COCCn1c(C)cc(C(=O)CSc2nnc(C)s2)c1C` the IC50 was 4100 nM. Compound `CCOC(=O)C(C(C)=O)c1c(Br)c(O)c(O)c2c(C(=O)c3ccc(C)cc3)coc12` (stereo not given) has an IC50 of 8330 nM. In the case of `Cc1cccc(-n2ncc3c(N(C)C4CCCCC4)ncnc32)c1`, the IC50 is reported as 6590 nM. Compound `c1ccc(-c2noc(-c3ccc4ccccc4c3)n2)nc1` has an IC50 of 1400 nM. In the case of `Cc1nn(Cc2c(Cl)cccc2Cl)c(C)c1NC(=O)c1cc(C(C)C)on1`, the IC50 is reported as > 9970 nM (inactive). In the case of `Cc1csc(NC(=O)c2sc3nc(-c4cccs4)ccc3c2N)n1`, the IC50 is reported as 565 nM. With `Cc1ccc2nc(-c3ccccc3)cn2c1` the IC50 was 1150 nM. Compound `O=C(CN1C(=O)c2ccccc2S1(=O)=O)N1CCc2ccccc21` has an IC50 of 2260 nM. In the case of `COc1cc(C(=O)N2CCN(c3cc(Cl)ccc3Cl)CC2)cc(OC)c1OC`, the IC50 is reported as > 30000 nM (inactive). `Cc1cccc2cc(CN(Cc3cccs3)C(c3nnnn3C3CCCC3)C(C)C)c(=O)[nH]c12` (stereo not given) was tested, and the IC50 was 8420 nM. For `O=C(/C=C\Nc1ccc2c(c1)OCO2)c1ccccn1`, the IC50 was 3030 nM. For `O=C(Nc1nc2ccccc2[nH]1)c1ccccc1F`, the IC50 was 2280 nM. In the case of `CN(C)c1ccc2c(c1)OC(N)=C(C#N)C2c1cccc(F)c1` (stereo not given), the IC50 is reported as 1650 nM. Work on `CCN(CC)c1ccc(-c2nn3c(-c4ccccc4OC)nnc3s2)cc1` yielded an IC50 of 819 nM. With `COC(=O)C1=C(CN2CCCc3ccccc32)NC(=O)NC1c1ccc(F)cc1` (stereo not given) the IC50 was 700 nM. In the case of `CC(C)(C)c1ccc(-c2noc(CCC(N)=O)n2)cc1`, the IC50 is reported as 300 nM. Work on `Cc1ccc(-c2nc(-c3ccccn3)no2)cc1` yielded an IC50 of 2060 nM. For `CC(C)c1nnc(NC(=O)c2c(O)c3cccc4c3n(c2=O)CCC4)s1`, the IC50 was > 30000 nM (inactive). For `Cn1cc(/C=N/n2cnc3scc(-c4ccc(Cl)cc4)c3c2=O)c2ccccc21`, the IC50 was > 30000 nM (inactive).
